Test results published in patent US20240174625A1, “COMPOSITIONS AND METHODS FOR TREATING TAUOPATHIES” (The Regents of the University of California, priority 2021, published 2024).
“Also recorded” adds a separate entry of the source.

What was measured:
tau = test: Tau or pathological tau reduction in human tauopathy patient iPSC-derived neurons; assay type: cell-based; settings: iPSC neurons from tauopathy patients
[1] = In vivo plasma pharmacokinetics; parameters: species or system mouse; settings: mice; for Cmax (maximum plasma concentration observed) / plasma PK parameters / half life: 20 mg/kg i.p., compared to JMM001
Description: (§1) Adult hTau^P301S homozygous mice (Tg2541Godt mice, a transgenic mouse model of tauopathy carrying a human Tau^P301S mutation^19 and wild-type (WT) littermates on a C57BL/6J background of both genders were used in the in vivo efficacy on Tau histopathology experiments. hTauP301S homozygous mice were obtained as gifts from Dr. Michel Goedert at MRC Laboratory of Molecular Biology, Cambridge, UK and Dr. Stanley Prusiner at UCSF, USA, and were re-derived onto a pure C57BL/6J genetic background by Dr. Prusiner's lab. Mice were periodically outcrossed with WT C57BL/6J mice (Strain #000664) from Jackson Laboratory (Bar Harbor, ME) to maintain genetic diversity. Animals were group-housed in a temperature-controlled facility (73±2° F., 45% humidity, regular 12-hour light/dark cycle, lights on at 7 AM), with food and water ad libitum. All experimental procedures were approved by the ARC administrative office at the University of California Los Angeles (UCLA) and the UCLA institutional animal care and use committee (IACUC) and followed the USDA Animal Welfare Act Regulations, the Public Health Service (PHS) Policy on Humane Care and Use of Laboratory Animals, and the Guide for the Care and Use of Laboratory Animals. Adult male WT mice on a C57BL/6J background (Strain #000664), purchased from Jackson Laboratory (Bar Harbor, ME), were used in the in vivo pharmacokinetics and blood-brain barrier penetration studies. Animals were randomly assigned to experimental groups and tested by experimenters blinded to experimental conditions.
In vivo pharmacokinetics and blood-brain barrier penetration studies are conducted at UCSD-DMPK core following their standard of operation protocols. Briefly, freshly prepared JMM compounds (e.g., JMM001, JMM013, JMM015, JMM052, JMM067, and JMM086) formulated in a vehicle (1:1:1:7 DMSO: Cremophor: Ethanol: Saline) were administered to C57BL/6J mice at 20 mg/kg systemically (i.p., i.v., or p.o.) at various time points (0, 0.5, 1, 2, 4, 8, and 24 hrs post-injection) with five mice per group. Plasma samples were collected, and compound plasma levels were measured using LC/MS. […] Brain samples are then processed following and compound concentrations in the brain sample were measured via LC/MS. Compound brain levels are normalized to the mass of brain in a unit of ng/mg.

phosphorylated tau = test: Tau histopathology in hTau^P301S mouse model of tauopathy; assay type: in vivo; settings: hTau^P301S homozygous mice; 20 mg/kg/day s.c. for 28 days; compared to vehicle
Description: as §1
Osmotic minipump (model #2004) were purchased from Alzet (Cupertino, CA, USA) and implanted into mice subcutaneously (s.c.) following the manufacturer's instruction, as previously described^20. Briefly, animals are placed on a thermoregulation device and anesthetized using isoflurane [4-5% (induction), 1.5-2.5% (maintenance)]. A sterile drape is used to create a sterile field for surgery after animal preparation. […] Animals are monitored observed continuously during the immediate anesthetic-recovery period until the animal is ambulatory. Animals are monitored daily after anesthetic recovery for 7 days. […]
Assessment of tau histopathological in a mouse model of tauopathy Effects of pharmacological manipulations of JMM compounds on tau histopathology were evaluated via osmotic pump chronic infusion at 20 mg/kg/day s.c. over 28 consecutive days in hTau^P301S homozygous mice or WT littermates, starting treatment at the onset of Tau histopathology (i.e., 4.2 months old age). […] Animals are weighted (g) and rectal temperature (° C.) was measured using a thermometer equipped with a mouse rectal probe (Braintree Scientific Inc., Braintree, MA) on treatment day 27. […]

| SMILES | toxicity in iPSC neurons (tau) | oral bioavailability ([1]; 20 mg/kg i.v. or p.o.) | Cmax (maximum plasma concentration observed) [1] | plasma PK parameters [1] | half life ([1]; 20 mg/kg) | tau histopathology in the cortex (phosphorylated tau staining) (phosphorylated tau) | half life [1] |
| --- | --- | --- | --- | --- | --- | --- | --- |
| COc1ccc(CNc2nsc3ccccc23)cc1OC [JMM001] | without observable toxicity | high | – | – | – | – | – |
| CN(Cc1ccc(C(F)(F)F)cc1)c1nsc2ccccc12 [JMM067] | without observable toxicity | – | increasing | improved | improved; also recorded: increasing | – | – |
| c1ccc(COc2ccc(CNc3nsc4ccc(OCc5ccccc5)cc34)cc2)cc1 [JMM083] | – | – | increasing | improved | improved; also recorded: increasing | reduced | – |
| c1ccc2c(c1)-c1ccccc1C2Nc1nsc2ccccc12 [JMM052] | – | – | increasing | improved | improved; also recorded: increasing | does not significantly reduce | – |
| c1ccc2c(CNc3nsc4ccccc34)cccc2c1 [JMM013] | without observable toxicity | – | – | improved | – | reduced | improved |
